Source: patent US5041549A, “Heterocyclic spiro compounds and methods for preparing the same” (Yamanouchi Pharmaceutical Co., Ltd., priority 1987, dated 1991)
Like-named read-outs stand apart in the source and are kept apart here.

Columns and labels:
[1] = target: T1, M1-receptor of rat cerebral cortex (Rattus norvegicus, UniProt P08482); assay: Affinity for muscarinic receptor: [3H]pirenzepine binding to M1-receptor of rat cerebral cortex
T1 construct: M1 -receptor of rat cerebral cortex; from tissue; host or cells: rat cerebral cortex (membranes of rat brain)
T1 sequence (P08482 1-460): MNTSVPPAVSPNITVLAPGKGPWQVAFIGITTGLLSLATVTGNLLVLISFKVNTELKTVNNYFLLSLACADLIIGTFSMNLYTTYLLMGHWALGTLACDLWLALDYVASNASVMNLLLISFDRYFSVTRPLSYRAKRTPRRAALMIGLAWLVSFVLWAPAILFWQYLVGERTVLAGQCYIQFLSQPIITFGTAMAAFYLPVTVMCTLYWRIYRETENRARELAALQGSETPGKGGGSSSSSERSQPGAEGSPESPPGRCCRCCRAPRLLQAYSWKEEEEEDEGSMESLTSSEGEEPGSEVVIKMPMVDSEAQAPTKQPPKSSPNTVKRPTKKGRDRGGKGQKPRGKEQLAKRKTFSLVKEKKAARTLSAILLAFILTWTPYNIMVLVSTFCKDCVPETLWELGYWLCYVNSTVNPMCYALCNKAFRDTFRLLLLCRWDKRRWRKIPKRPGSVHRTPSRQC

tremor in mice = assay: Induction of tremor in mice; conditions: sc
[2] = target: M2-receptor of rat cerebellum (Rattus norvegicus, UniProt P10980); assay: biochemical; format: binding
Chain of M2-receptor of rat cerebellum (P10980 whole entry): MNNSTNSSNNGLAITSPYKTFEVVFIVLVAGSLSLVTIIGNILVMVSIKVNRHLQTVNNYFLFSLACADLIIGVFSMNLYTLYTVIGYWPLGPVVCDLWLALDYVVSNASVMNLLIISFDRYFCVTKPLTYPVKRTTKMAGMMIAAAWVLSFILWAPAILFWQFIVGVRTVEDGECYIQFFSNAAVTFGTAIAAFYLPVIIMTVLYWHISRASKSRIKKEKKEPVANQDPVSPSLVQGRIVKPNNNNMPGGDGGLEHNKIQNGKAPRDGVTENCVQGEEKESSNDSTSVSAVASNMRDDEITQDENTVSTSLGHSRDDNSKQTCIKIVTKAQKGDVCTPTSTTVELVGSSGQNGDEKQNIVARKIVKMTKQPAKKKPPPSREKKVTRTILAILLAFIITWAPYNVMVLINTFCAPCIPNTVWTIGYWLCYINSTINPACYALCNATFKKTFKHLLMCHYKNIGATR

Structure (SMILES)	IC50 [1] [µM]	Dose, the effect of the above 2) (minimum effective dose for causing tremor) (tremor in mice) [mg/kg]	IC50 [2] [µM]	IC50 ([1]; [3H]pirenzepine, M1-receptor, rat cerebral cortex, read-out: Receptor-affinity IC50, Pirenzepine binding) [µM]
CC1OC2(CN3CCC2CC3)CC12SCCS2 (single isomer, unassigned) [Example 33, 5'-Methyl-dispiro[1-azabicyclo[2.2.2]octane-3,2'-oxolane-4',2"-[1.3]dithiolane]]	0.017	> 30	0.31	–
COC(=O)C1=CCCN(C)C1 [Arecoline, reference compound]	–	5	–	–
C=C1CC2(CCN(C)CC2)OC1C (centres unmarked) [Example 5, 2,8-dimethyl-3-methylene-1-oxa-8-azaspiro[4,5]decane]	3.32	> 30	25.1	–
CCC1OC2(CCN(C)CC2)CC1=O (centres unmarked) [Example 15, 2-ethyl-8-methyl-1-oxa-8-azaspiro[4.5]decan-3-one]	–	> 30	–	–
CC1SC2(CCN(C)CC2)CC12SCCS2 (centres unmarked) [Example 22, 10,14-Dimethyl-1,4,13-trithia-10-azadispiro[4.1.5.2]tetradecane]	0.039	> 30	0.71	–
CCC1OC2(CCN(C)CC2)CC12OCCS2 (centres unmarked) [Example 29, 14-ethyl-10-methyl-1,13-dioxa-4-thia-10-azadispiro[4.1.5.2]tetradecane]	0.049	> 30	0.64	–
C=C1CC2(CCN(C)CC2)OC1CC (centres unmarked) [Example 36, 2-Ethyl-8-methyl-3-methylene-1-oxa-8-azaspiro[4.5]decane]	–	> 30	8.96	1.26
O=C1CCCN1CC#CCN1CCCC1 [Oxotremorine, reference compound]	0.068	0.2	0.0049	–
